Literature values as cited in patent US10100341B2, “Tailored oils produced from recombinant oleaginous microorganisms” (Corbion Biotech, Inc., priority 2011, dated 2018).

System: Rhodococcus opacus
Conditions: 1 mg/ml thiostrepton; cited from earlier work

C=C(NC(=O)C(=C)NC(=O)c1csc(C2=N[C@@H]3c4csc(n4)[C@H]4NC(=O)c5csc(n5)[C@H]([C@](C)(O)[C@@H](C)O)NC(=O)[C@H]5CSC(=N5)/C(=C/C)NC(=O)[C@H]([C@@H](C)O)NC(=O)c5csc(n5)[C@]3(CC2)NC(=O)[C@H](C)NC(=O)C(=C)NC(=O)[C@H](C)NC(=O)[C@H]([C@@H](C)CC)N[C@@H]2C=Cc3c([C@H](C)O)cc(nc3[C@H]2O)C(=O)O[C@@H]4C)n1)C(N)=O [thiostrepton]
propagation of untransformed cells in medium comprising the agent: unable to propagate
